Broadly, the Ki is the equilibrium dissociation constant of an inhibitor or competing ligand from its target.

This assay has as its target T1, Rhesus PDE2A3 (Macaca mulatta, UniProt B3VTJ2).
T1 construct: made in house; host or cells: AD293 cells, transient transfection, pcDNA3.3-TOPO; lysate supernatant used as enzyme
T1 sequence (B3VTJ2 1-941): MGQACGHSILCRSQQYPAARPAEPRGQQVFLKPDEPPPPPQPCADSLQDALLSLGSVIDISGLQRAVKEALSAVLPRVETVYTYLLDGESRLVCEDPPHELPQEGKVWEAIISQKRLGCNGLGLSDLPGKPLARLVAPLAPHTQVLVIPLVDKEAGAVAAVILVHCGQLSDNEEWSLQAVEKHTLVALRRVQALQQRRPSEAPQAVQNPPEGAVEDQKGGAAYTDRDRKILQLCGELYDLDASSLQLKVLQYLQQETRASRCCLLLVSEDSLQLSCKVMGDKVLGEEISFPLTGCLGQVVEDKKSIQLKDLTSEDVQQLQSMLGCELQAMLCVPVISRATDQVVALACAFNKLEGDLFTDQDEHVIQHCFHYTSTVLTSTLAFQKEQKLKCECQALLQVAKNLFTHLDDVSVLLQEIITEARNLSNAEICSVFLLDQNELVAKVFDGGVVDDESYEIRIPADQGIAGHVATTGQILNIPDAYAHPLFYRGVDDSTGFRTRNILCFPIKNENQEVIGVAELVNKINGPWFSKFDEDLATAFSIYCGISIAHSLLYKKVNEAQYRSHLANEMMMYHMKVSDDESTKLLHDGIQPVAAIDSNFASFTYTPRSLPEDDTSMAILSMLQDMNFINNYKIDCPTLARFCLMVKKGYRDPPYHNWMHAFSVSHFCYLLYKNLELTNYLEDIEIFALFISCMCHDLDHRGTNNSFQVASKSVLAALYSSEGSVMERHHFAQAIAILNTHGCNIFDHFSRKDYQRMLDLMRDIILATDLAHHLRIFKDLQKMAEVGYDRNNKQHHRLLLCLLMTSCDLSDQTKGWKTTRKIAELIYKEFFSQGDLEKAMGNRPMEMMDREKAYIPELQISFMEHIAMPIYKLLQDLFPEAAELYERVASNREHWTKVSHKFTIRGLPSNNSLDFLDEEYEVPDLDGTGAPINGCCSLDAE
The assay is described as follows: PDE2 fluorescence polarization (IMAP FP) inhibition assay, rhesus enzyme. In kind it is biochemical, rhesus macaque. Summed up:
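Lysate of AD293 cells transiently expressing rhesus PDE2A3, diluted for ~20% substrate conversion, with 50 nM FAM-cAMP and 1 uM cGMP activator in pH 7.2 Tris/MgCl2 buffer, 60 min at room temperature.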
Background: Polarisation of emitted light reports the rotation of a fluorescent probe.

Where [1] appears, read: Lab A, read-out: Rhesus PDE2 Ki (nM) Lab A.
Setting [2] is: Lab B, read-out: Rhesus PDE2 Ki (nM) Lab B.

Each structure is given as a SMILES string. Read-outs that look alike come from different tables or passages of the source.

Regarding `Cc1nc(-c2cnn(C(C)c3ccc(C(F)(F)F)cc3C)c2)cc(=O)[nH]1` (single isomer, unassigned) [Example 57, (S)- or (R)-2-methyl-6-(1-(1-(2-methyl-4-(trifluoromethyl)phenyl)ethyl)-1H-pyrazol-4-yl)pyrimidin-4(3H)-one], the Ki came to 13.1 nM under setting [1] and 13 nM under setting [2].

Turning to `COc1ccc(Cc2nc(-c3cnn(C(C)c4ccc(C(F)(F)F)cc4F)c3)cc(=O)[nH]2)cc1F` (single isomer, unassigned) [Example 146, (R)- or (S)-6-(1-(1-(2-fluoro-4-(trifluoromethyl)phenyl)ethyl)-1H-pyrazol-4-yl)-2-(3-fluoro-4-methoxybenzyl)pyrimidin-4(3H)-one], under setting [1], the inhibitory constant (Ki) was found to be 31.5 nM.

For the compound `CCCC(c1ccc(C(F)(F)F)cc1)n1cc(-c2cc(=O)[nH]c(C)n2)cn1` (stereo not shown) [Example 154, 2-methyl-6-(1-(1-(4-(trifluoromethyl)phenyl)butyl)-1H-pyrazol-4-yl)pynmidin-4(3H)-one], the inhibition constant Ki under setting [2] was determined as 244 nM.

Regarding `Cc1nc(-c2cnn(C(C)c3ccc(C(F)(F)F)cc3)c2)cc(=O)[nH]1` (stereo not shown) [Example 126, 2-methyl-6-(1-(1-(4-(trifluoromethyl)phenyl)ethyl)-1H-pyrazol-4-yl)pyrimidin-4(3H)-one], the inhibition constant Ki under setting [2] was found to be 306 nM.

For `Cc1nc(-n2cc([C@H](C)c3ccc(C(F)(F)F)cc3)cn2)cc(=O)[nH]1` (single isomer, unassigned) [Example 4], the inhibition constant Ki under setting [2] came out at 29.5 nM.

Take `Cc1nc(-n2cc([C@](C)(O)c3ccc(C(F)(F)F)cc3F)cn2)cc(=O)[nH]1` (single isomer, unassigned) [Example 15]: the Ki under setting [2] was 15.6 nM.

Turning to `Cc1nc(-n2cc([C@H](CO)c3ccc(C(F)(F)F)cc3F)cn2)cc(=O)[nH]1` (single isomer, unassigned) [Example 20], the inhibition constant Ki under setting [2] worked out at 18.2 nM.

Take `Cc1nc(-n2cc(C3(C)OCc4cc(C(F)(F)F)ccc43)cn2)cc(=O)[nH]1` (single isomer, unassigned) [Example 27]: under setting [2], the inhibitory constant (Ki) worked out at 98 nM.

For `COc1cc(Cc2nc(-c3cnn(C(C)c4ccc(C(F)(F)F)cc4F)c3)cc(=O)[nH]2)ccc1F` (single isomer, unassigned) [Example 143, (S)- or (R)-2-(4-fluoro-3-methoxybenzyl)-6-(1-(1-(2-fluoro-4-(trifluoromethyl)phenyl)ethyl)-1H-pyrazol-4-yl)pyrimidin-4(3H)-one], the inhibitory constant (Ki) is, setting by setting: under setting [1], 21.3 nM; under setting [2], 10.9 nM.

In the case of `Cc1nc(-c2cnn(C(C)c3ccc(C(F)(F)F)cc3F)c2)cc(=O)[nH]1` (single isomer, unassigned) [Example 135, (R)- or (S)-6-(1-(1-(2-fluoro-4-(trifluoromethyl)phenyl)ethyl)-1H-pyrazol-4-yl)-2-methylpyrimidin-4(3H)-one], the Ki under setting [2] was found to be 109 nM.

Turning to `Cc1nc(-c2cnn(C(C)c3ccc(OC(F)(F)F)cc3)c2)cc(=O)[nH]1` (single isomer, unassigned) [Example 127, (R)- or (S)-2-methyl-6-(1-(1-(4-(trifluoromethoxy)phenyl)ethyl)-1H-pyrazol-4-yl)pyrimidin-4(3H)-one], the inhibition constant (Ki) under setting [2] is 130 nM.

`CCc1nc(-c2cnn(C(C)c3ccc(C(F)(F)F)cc3F)c2)cc(=O)[nH]1` (single isomer, unassigned) [Example 85, (R)- or (S)-2-ethyl-6-(1-(1-(2-fluoro-4-(trifluoromethyl)phenyl)ethyl)-1H-pyrazol-4-yl)pyrimidin-4(3H)-one]: the Ki under setting [1] was 14.4 nM.

As for `COc1ccc(Cc2nc(-c3cnn(C(C)c4ccc(C(F)(F)F)cc4)c3)cc(=O)[nH]2)cc1OC` (single isomer, unassigned) [Example 61, (S)- or (R)-2-(3,4-dimethoxybenzyl)-6-(1-(1-(4-(trifluoromethyl)phenyl)ethyl)-1H-pyrazol-4-yl)pyrimidin-4(3H)-one], the Ki was found to be 2 nM under setting [1] and 1.8 nM under setting [2].

As to `COc1cc(Cc2nc(-c3cnn(C(C)c4ccc(C(F)(F)F)cc4F)c3)cc(=O)[nH]2)ccc1F` (single isomer, unassigned) [Example 142, (R)- or (S)-2-(4-fluoro-3-methoxybenzyl)-6-(1-(1-(2-fluoro-4-(trifluoromethyl)phenyl)ethyl)-1H-pyrazol-4-yl)pyrimidin-4(3H)-one], the inhibition constant (Ki) is 3.3 nM under setting [1] and 1.4 nM under setting [2].

`CC(c1ccc(C(F)(F)F)cc1F)n1cc(-c2cc(=O)[nH]c(C3CC3)n2)cn1` (stereo not shown) [Example 10]: the Ki under setting [1] stood at 25 nM.

As for `Cc1nc(-n2cc(C3(C)OCc4cc(C(F)(F)F)ccc43)cn2)cc(=O)[nH]1` (single isomer, unassigned) [Example 28], the Ki under setting [2] stood at 94.5 nM.

Turning to `Cc1nc(-c2cnn(Cc3ccc(OC(F)(F)F)cc3)c2)cc(=O)[nH]1` [Example 29, 2-Methyl-6-(1-(4-(trifluoromethoxy)benzyl)-1H-pyrazol-4-yl)pyrimidin-4(3H)-one], the inhibition constant Ki under setting [2] is 1210 nM.

As for `Cc1nc(-c2ccn(C(C)c3ccc(C(F)(F)F)cc3)n2)cc(=O)[nH]1` (single isomer, unassigned) [Example 78, (S)- or (R)-2-methyl-6-(1-{(1R)-1-[4-(trifluoromethyl)phenyl]ethyl}-1H-pyrazol-3-yl)pyrimidin-4(3H)-one], under setting [2], the inhibition constant (Ki) stood at 318 nM.

With `COc1ccc(Cc2nc(-c3cnn(C(C)c4ccc(C(F)(F)F)cc4F)c3)cc(=O)[nH]2)cc1` (single isomer, unassigned) [Example 139, (S)- or (R)-6-(1-(1-(2-fluoro-4-(trifluoromethyl)phenyl)ethyl)-1H-pyrazol-4-yl)-2-(4-methoxybenzyl)pyrimidin-4(3H)-one], the Ki turned out to be 52.1 nM under setting [1] and 19.1 nM under setting [2].

Consider `Cc1nc(-c2cnn(C(C)c3ccc(C(F)(F)F)cc3F)c2)cc(=O)[nH]1` (single isomer, unassigned) [Example 136, (S)- or (R)-6-(1-(1-(2-fluoro-4-(trifluoromethyl)phenyl)ethyl)-1H-pyrazol-4-yl)-2-methylpyrimidin-4(3H)-one], for which the Ki is, setting by setting: under setting [1], 18.3 nM; under setting [2], 11.1 nM.

Turning to `COc1ccc(Cc2nc(-c3cnn(C(C)c4ccc(C(F)(F)F)cc4F)c3)cc(=O)[nH]2)cc1OC` (single isomer, unassigned) [Example 67], the Ki came out at 0.2 nM under setting [1] and 0.1 nM under setting [2].

For `Cc1nc(-c2cnn(C(c3ccc(C(F)(F)F)cc3F)C(C)C)c2)cc(=O)[nH]1` (stereo not shown) [Example 34, 6-(1-(1-(2-fluoro-4-(trifluoromethyl)phenyl)-2-methylpropyl)-1H-pyrazol-4-yl)-2-methylpynmidin-4(3H)-one], the Ki by setting is: under setting [1], 54.6 nM; under setting [2], 26.9 nM.

Turning to `COc1ccc(Cc2nc(-c3cnn(C(C)c4ccc(C(F)(F)F)cc4)c3)cc(=O)[nH]2)cc1OC` (single isomer, unassigned) [Example 60, (R)- or (S)-2-(3,4-dimethoxybenzyl)-6-(1-(1-4-(trifluoromethyl)phenyl)ethyl)-1H-pyrazol-4-yl)pyrimidin-4(3H)-one], the inhibition constant (Ki) was found to be 3.6 nM under setting [1] and 2.4 nM under setting [2].

Take `Cc1nc(-n2cc(C(c3ccc(C(F)(F)F)cc3)C(C)C)cn2)cc(=O)[nH]1` (stereo not shown) [Example 130]: under setting [2], the Ki was 138 nM.

With `Cc1nc(-n2cc(C(C)c3ccc(C(F)(F)F)cc3F)cn2)cc(=O)[nH]1` (single isomer, unassigned) [Example 52, (R)- or (S)-6-(4-(1-(2-fluoro-4-(trifluoromethyl)phenyl)ethyl)-1H-pyrazol-1-yl)-2-methylpyrimidin-4(3H)-one], the inhibition constant (Ki) under setting [2] is 7.2 nM.

In the case of `Cc1ccc(C(C)n2cc(-c3cc(=O)[nH]c(C)n3)cn2)c(Cl)c1` (single isomer, unassigned) [Example 148, (R)- or (S)-6-(1-(1-(2-chloro-4-methylphenyl)ethyl)-1H-pyrazol-4-yl)-2-methylpyrimidin-4(3H)-one], the Ki under setting [1] came out at 47.9 nM.

`Cc1nc(-n2cc(C(C)c3ccc(C(F)(F)F)cc3F)cn2)cc(=O)[nH]1` (single isomer, unassigned) [Example 53, (S)- or (R)-6-(4-(1-(2-fluoro-4-(trifluoromethyl)phenyl)ethyl)-1H-pyrazol-1-yl)-2-methylpyrimidin-4(3H)-one]: under setting [2], the Ki amounted to 64.5 nM.

On to `CCc1ccc(C(C)n2cc(-c3cc(=O)[nH]c(C)n3)cn2)c(Cl)c1` (single isomer, unassigned) [Example 99, (R)- or (S)-6-(1-(1-(2-chloro-4-ethylphenyl)ethyl)-1H-pyrazol-4-yl)-2-methylpyrimidin-4(3H)-one], for which the inhibitory constant (Ki) under setting [1] amounted to 10.7 nM.

(Values after patent US10287269B2, “Pyrazolyl pyrimidinone compounds as PDE2 inhibitors” (Merck Sharp & Dohme Corp., priority 2015, dated 2019).)
